Structures can show the parent of a compound that is named as a salt.

The source of these data is US5017618A, “Labile derivatives of ketone analogs of 3-substituted-1-alkylamino-2-propanols and their use as beta-adrenergic blockers” (priority 1989, dated 1991).

The subject of data set [1] is rabbit cornea (intraocular enzymes). Format: in vivo. The settings on record: topical, 2% (w/v) aqueous solution. Here is the method:
The tissue was homogenized in an alkaline buffer (pH 10.0) to give 10% (w/v) homogenate, and extracted twice with equal volumes of methylene chloride/diethyl ether mixture (1:4, v/v) by shaking for 15 minutes. The organic layer was separated, then re-extractedwith an equal volume of aqueous 0.1M hydrochloric acid solution. The aqueous phase was made alkaline (pH 10.0) and extracted with methylene chloride/diethyl ether, the organic layer was transferred to a deactivated glass vial, and the solvent was evaporated at reduced pressure under nitrogen stream. The residue was dissolved in 0.01M hydrochloric acid solution and analyzed by high-performance liquid chromatography (HPLC). A Supelcosil LC-8-DB analytical column (7.5 cm×4.6 mm i.d., 3 μm particle size) and mobile phase (1.5 mL/min flow rate) consisting of 30% acetonitrile in an aqueous buffer solution of 0.02M monobasic potassium phosphate (adjusted to pH 3.0 with phosphoric acid) and 0.01 (v/v) triethylamine. UV detection at 280 nm was applied. […] The same experiment was carried out by administering 1-(isopropylamino)-3-(2-allylphenoxy)-2-propanone oxime hydrochloride salt in 2% (w/v) aqueous solution. […]

For data set [2], the system named is resting heart rate of rats. In words: Effect on resting heart rate in rats. Format: in vivo, rat (male Sprague-Dawley). The settings on record: 6 mg/kg i.v. (Example 6). Here is the method:
(§1) Groups of seven male Sprague-Dawley rats weighing 150-250 g were used. Each animal was anesthetized with sodium pentobarbital (50 mg/kg) and the jugular vein was cannulated with PE50 tubing. This cannula was subcutaneously threaded around the neck and exteriorized dorsally. The cannula was filled with heparin solution ([…]) and sealed with a solid 22-gauge stylet. Animals were housed in individual stainless steel cages and at least 24 hours were allowed for recovery from the surgery. Food and water were provided ad libitum. On the day of the experiment, the heart rate of each rat was monitored with a plethsmograph and the data recorded on a Physioscribe II recorder. One hour was allowed as an equilibration period before any drugs were administered. Drugs were dissolved in normal saline as 0.3% solution and were administered intravenously at a dose of 6 mg/kg. The resting heart rate was then recorded after 1, 3, 5, 10 and 15 minutes following i.v. injection. […] A control group of seven animals was intravenously administered saline solution and was treated exactly in the same manner as the drug-treated groups. The significance of the difference between the effect of saline solution and the drugs under investigation on the resting heart rate and on isoprenaline tachycardia was analyzed using the student's "t" test. Values are given as mean ±S.E. of the mean. […] (.) carteolol HCl, 1c; .circle. propranolone ketoxime HCl, 6a; (.gradient.) timolone ketoxime oxalate, 6b; (Δ) N-isopropyl timolone ketoxime HCl, 6d; carteolone oxime HCl, 6c; and (---) saline solution. […] Drugs were administered to groups of 5 rats using a stomach tube and the heart rate was recorded for 1 hour. […] A control group of 5 rats was treated exactly in the same manner after the oral administration of the appropriate volume of saline solution.

The test system of data set [3] is isoprenaline-induced tachycardia. In words: Effect on isoprenaline-induced tachycardia in rats (β-adrenergic antagonist activity). Format: in vivo, rat (male Sprague-Dawley). Conditions: for β-antagonist activity: dose levels used; for β-adrenergic antagonist activity against isoprenaline-tachycardia: rats, 6 mg/kg i.v., isoprenaline 50 μg/kg s.c., FIG. 1. Here is the method: as §1

Data set [4] has as its system Intraocular Pressure (IOP) of Rabbits. In words: Effect on the Intraocular Pressure (IOP) of Rabbits. Format: in vivo, rabbit (male New Zealand albino). Conditions: for ocular hypotensive activity (in words): topical, rabbits, dose levels used. How it is done: The animals were kept in individual cages with free access to food and water. Intraocular pressure was measured using a Digilab model 30R pneumatonometer. The pneumatonometer readings were checked at least twice a day using the Digilab calibration verifier. All measurements were obtained from unrestrained, unanesthetized rabbits. One drop of 0.5% propacaine (Ophthetic-Allergen Pharmaceuticals, Inc.) diluted 1:2 with saline was instilled in each eye immediately prior to IOP measurement. Drugs were administered as 1 or 2.5% solution in buffer pH 7.4 or in saline in both eyes of a group of at least four rabbits. Another group of at least three rabbits served as control and was administered the carrier only. […] Values are given as means ± standard error (S.E.) of the mean. The significance of the change was determined using the student's t-test.

For data set [5] the following is noted: propranolol enantiomers; cited from earlier work.
Data set [6] relates to ocular tissues of rabbits. The data set is described as follows: In vivo distribution-metabolism in ocular tissues of rabbits. The settings on record: rabbit, in vivo. Here is the method: Adult male New Zealand albino rabbits weighing 2.5-3.5 kg were used. Standard doses of 100 μl of 1% solution of the drugs in saline solution were administered topically to both eyes of each rabbit. After appropriate time intervals (30, 60 and 120 minutes), the animals were sacrificed. Aqueous humor was obtained by making a single puncture at the limbus using a 25 g×5/8" needle attached to 1 cm^3 syringe. Then the cornea and the iris-ciliary body were isolated. The tissues were pooled and homogenized using a Tekmar SDT tissuemizer in ice cold perchloric acid (0.05M) which contained 0.05% sodium metabisulfite as antioxidant. Samples were then rehomogenized in CH3 OH to prepare 10% homogenates, transferred to micro-filters and centrifuged for 20 minutes at 10000 r/minute to precipitate proteins. Aqueous humor was analyzed as such without any further dilution. Aliquots of 5-20 μl of the 10% tissue homogenate samples were analyzed by HPLC.

Setting [7] is: Table 3, 1% solution, time zero.

As for `C=CCc1ccccc1OCC(CNC(C)C)=NO.Cl` [1-(isopropylamino)-3-(2-allylphenoxy)-2-propanone oxime hydrochloride], the “metabolites identified in cornea” value in data set [1] was “showed the presence of the two oxime isomers, the corresponding ketone 1-(isopropylamino)-3-(2-allylphenoxy)-2-propanone, and the β-adrenergic blocker 1-(isopropylamino)-3-(2-allylphenoxy)-2-propanol(alprenolol)”.
With `CC(C)(C)NCC(O)COc1cccc2c1CCC(=O)N2` (stereo not shown) [Compound 1c, reference compound], the “activity on resting heart rate (negative chronotropic action)” value (“activity on resting heart rate” below) in data set [2] is “lowest activity on the heart rate of rats”.
Turning to `CC(C)(C)NCC(COc1cccc2c1CCC(=O)N2)=NO` [Compound 6c, 5-[3-(tert-Butylaminno)-2-(hydroxyimino)propoxy]-3,4-dihydrocarbostyril Hydrochloride], the “activity on resting heart rate” value in data set [2] is on record as “less active”. Moreover, in data set [3], the β-antagonist activity result is recorded as “some β-antagonist activity” and the “β-adrenergic antagonist activity against isoprenaline-tachycardia” value is given as “least active”. Moreover, the “ocular hypotensive activity (in words)” value in data set [4] is “low activity at the dose levels used”.
On to `CC(C)NCC(COc1nsnc1N1CCOCC1)=NO.Cl` [Compound 6d, 1-(Isopropylamino)-3-[(4-morpholino-1,2,5-thiadiazol-3-yl)oxy]-2-propanone oxime Hydrochloride], for which the “activity on resting heart rate” value in data set [2] is “less active”. Besides, in data set [3], the β-antagonist activity entry was “some β-antagonist activity” and the “β-adrenergic antagonist activity against isoprenaline-tachycardia” value was “least active”. In data set [4] (selected dosage level), the activity result is “inactive at the selected dosage level”. The “ocular hypotensive activity (in words)” value in data set [4] was “low activity at the dose levels used”.
Turning to `CC(C)NCC(O)COc1cccc2ccccc12` (stereo not shown) [Propranolol HCl 1a, reference compound], the “% change after treatment (IOP)” value in data set [4] (1% solution, 30 min.) is on record as -9.10%; in data set [4] (1% solution, 60 min.), -10.39%; in data set [4] (1% solution, 2 hrs.) it was -5.52%; in data set [4] (1% solution, 3 hrs.), -11.04%; in data set [4] (1% solution, 4 hrs.), -8.44%; in data set [4] (1% solution, 6 hrs.) it was -5.84%. Besides, the “% change after treatment (IOP)” value was -1.95% in data set [4] (1% solution, 8 hrs.); 0.00% in data set [4] (1% solution, time zero); “+8.66%” in data set [4] (2.5% solution, 30 min.); “+9.84%” in data set [4] (2.5% solution, 60 min.); “+1.18%” in data set [4] (2.5% solution, 2 hrs.); “+1.18%” in data set [4] (2.5% solution, 3 hrs.). In addition, the “% change after treatment (IOP)” value in data set [4] (2.5% solution, 4 hrs.) was “+0.79%”; in data set [4] (2.5% solution, 6 hrs.) it was 0.00%; in data set [4] (2.5% solution, 8 hrs.), -0.79%; in data set [4] (2.5% solution, time zero) it was 0.00%. Moreover, the “IOP, treated” value in data set [4] (1% solution, 30 min.) turned out to be 28.0 ± 0.56 mm/Hg; in data set [4] (1% solution, 60 min.), 27.6 ± 0.62 mm/Hg; in data set [4] (1% solution, 2 hrs.), 29.1 ± 0.38 mm/Hg; in data set [4] (1% solution, 3 hrs.), 27.4 ± 0.54 mm/Hg; in data set [4] (1% solution, 4 hrs.), 28.2 ± 0.48 mm/Hg; in data set [4] (1% solution, 6 hrs.), 29.0 ± 0.45 mm/Hg. The “IOP, treated” value in data set [4] (1% solution, 8 hrs.) is listed as 30.2 ± 0.43 mm/Hg; in data set [4] (1% solution, time zero) it was 30.8 ± 0.40 mm/Hg; in data set [4] (2.5% solution, 30 min.), 27.6 ± 0.56 mm/Hg; in data set [4] (2.5% solution, 60 min.), 27.9 ± 0.60 mm/Hg; in data set [4] (2.5% solution, 2 hrs.), 25.7 ± 0.55 mm/Hg; in data set [4] (2.5% solution, 3 hrs.) it was 25.7 ± 0.39 mm/Hg. For the same compound, the “IOP, treated” value in data set [4] (2.5% solution, 4 hrs.) came to 25.6 ± 0.46 mm/Hg; in data set [4] (2.5% solution, 6 hrs.), 25.4 ± 0.54 mm/Hg; in data set [4] (2.5% solution, 8 hrs.) it was 25.2 ± 0.68 mm/Hg; in data set [4] (2.5% solution, time zero) it was 25.4 ± 0.56 mm/Hg.
As to `CC(C)NC[C@@H](O)COc1cccc2ccccc12` [R-(+)-enantiomer], the “metabolism relative to S-form” value in data set [5] is reported as “metabolized faster than the S-form”.
As to `CC(C)NC[C@H](O)COc1cccc2ccccc12` [S-(-)-isomer], the “potency relative to R-(+)-enantiomer” value in data set [5] was “about 100 times”.
As for `CC(C)(C)NCC(O)COc1nsnc1N1CCOCC1` (stereo not shown) [Timolol maleate 1b, reference compound], the “% change after treatment (IOP)” value in data set [4] (Table 3, 1% solution, 30 min.) was -10.93%; in data set [4] (Table 3, 1% solution, 1 hr.), 6.65%; in data set [4] (Table 3, 1% solution, 2 hr.) it was 6.78%; in data set [4] (Table 3, 1% solution, 3 hr.), 14.35%; in data set [4] (Table 3, 1% solution, 4 hr.), 14.77%; in data set [4] (Table 3, 1% solution, 5 hr.) it was 16.92%. The “% change after treatment (IOP)” value came out at 12.37% in data set [4] (Table 3, 1% solution, 6 hr.); 9.80% in data set [4] (Table 3, 1% solution, 8 hr.); 0.00% in data set [4] (setting [7]). Moreover, the “IOP, drug-treated” value turned out to be 26.00 ± 1.23 mm/Hg in data set [4] (Table 3, 1% solution, 30 min.); 27.25 ± 1.12 mm/Hg in data set [4] (Table 3, 1% solution, 1 hr.); 27.21 ± 0.58 mm/Hg in data set [4] (Table 3, 1% solution, 2 hr.); 25.00 ± 0.87 mm/Hg in data set [4] (Table 3, 1% solution, 3 hr.); 24.88 ± 1.00 mm/Hg in data set [4] (Table 3, 1% solution, 4 hr.); 24.25 ± 1.18 mm/Hg in data set [4] (Table 3, 1% solution, 5 hr.). Besides, the “IOP, drug-treated” value in data set [4] (Table 3, 1% solution, 6 hr.) is recorded as 25.58 ± 0.85 mm/Hg; in data set [4] (Table 3, 1% solution, 8 hr.), 26.33 ± 0.40 mm/Hg; in data set [4] (setting [7]), 29.19 ± 0.78 mm/Hg.
Turning to `CC(C)(C)NCC(O)COc1cccc2c1CCC(=O)N2` (stereo not shown) [carteolol], the “detection of parent β-adrenergic antagonist in eye compartments” value in data set [6] is “could not be found in any of the eye compartments”.
